This data set concerns human PBMCs. The data set is described as follows: Human PBMC cytokine response assay (IFN-γ and IFN-α in cell-free medium by ELISA), with or without cPLGA.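 On IFN-α (pg/ml) mean: 20 µg/mL compound for 24 hours.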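 On IFN-γ (pg/ml) mean: 20 µg/mL compound for 24 hours.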 The data set is classed as cell-based. To be noted: for IFN-a / IFN-g / IFN-a mean / IFN-g mean: Table 25; for IFN-a mean / IFN-g mean: mean of donors 28250-28253; for immunomodulatory activity (IFN-γ / IFN-α secretion), in words: used alone (no cPLGA).

Where [1] appears, read: donor 28250, polynucleotides/spacers at amounts equivalent to the CIC, spacers alone 9 uM.
[2] abbreviates: donor 28066, 20 ug/ml, 24 h, + PLGA = premixed with 100 μg/ml cPLGA.
[3] abbreviates: donor 28067, 20 ug/ml, 24 h, + PLGA = premixed with 100 μg/ml cPLGA.
The mark [4] stands for this setting: donor 28068, 20 ug/ml, 24 h, + PLGA = premixed with 100 μg/ml cPLGA.
Setting [5] is: mean of Donors 3-4, 20 μg/ml, 24 h.
The mark [6] stands for this setting: mean of donors 28065-28068, 20 ug/ml, 24 h, + PLGA = premixed with 100 μg/ml cPLGA.

The values that follow come from patent US9028845B2, “Chimeric immunomodulatory compounds and methods of using the same-IV” (Dynavax Technologies Corporation, priority 2001, dated 2015).

With “5′-ACGTTCG-3′ [Compound P-3, reference compound]”, the IFN-a mean amounted to 29 pg/mL; the IFN-g mean amounted to 31 pg/mL; the “immunomodulatory activity (IFN-γ / IFN-α secretion), in words” value was “did not have immunomodulatory activity”. Under “20 μg/ml, 24 h”, the “IFN-α (pg/ml) Donor 3” value worked out at 0 pg/mL, the “IFN-γ (pg/ml) Donor 3” value worked out at 1 pg/mL, the “IFN-α (pg/ml) Donor 4” value was 32 pg/mL and the “IFN-γ (pg/ml) Donor 4” value came out at 3 pg/mL. This substance also displayed an IFN-a (donor 28250) of 16 pg/mL. The IFN-g under setting [1] came out at 32 pg/mL. In addition, under “donor 28251”, the IFN-a was 29 pg/mL and the IFN-g turned out to be 21 pg/mL. Further, for the setting “donor 28252”, the IFN-a is 38 pg/mL and the IFN-g is 72 pg/mL. Under “donor 28253”, this substance yielded an IFN-a of 31 pg/mL and an IFN-g of 1 pg/mL. Moreover, the “IFN-γ (pg/ml) 28065” value (donor 28065 (high background), 20 ug/ml, 24 h, + PLGA = premixed with 100 μg/ml cPLGA, 1000 = outside assay limits) came out at 94 pg/mL. Where the note is “donor 28065, 20 ug/ml, 24 h, + PLGA = premixed with 100 μg/ml cPLGA”, the “IFN-α (pg/ml) 28065” value turned out to be 0 pg/mL. Under setting [2], the “IFN-α (pg/ml) 28066” value worked out at 0 pg/mL and the “IFN-γ (pg/ml) 28066” value came out at 27 pg/mL. Under setting [3], the “IFN-α (pg/ml) 28067” value was found to be 5 pg/mL and the “IFN-γ (pg/ml) 28067” value turned out to be 1 pg/mL. Moreover, under setting [4], the “IFN-α (pg/ml) 28068” value amounted to 0 pg/mL and the “IFN-γ (pg/ml) 28068” value stood at 0 pg/mL. Under setting [5], the “IFN-α (pg/ml) mean” value was found to be 16 pg/mL and the “IFN-γ (pg/ml) mean” value was determined as 2 pg/mL. Under setting [6], the “IFN-α (pg/ml) mean” value stood at 1 pg/mL and the “IFN-γ (pg/ml) mean” value is 31 pg/mL.

“5′-TCGTCGA-3′-HEG-5′-AACGTTC-3′-HEG-5′-AGATGAT-3′ [Compound C-54]” showed an IFN-α (Table 13, donor 28156) of 8 pg/mL; an IFN-α (Table 13, donor 28157) of 96 pg/mL; an IFN-α (Table 13, donor 28158) of 8 pg/mL; an IFN-α (Table 13, donor 28159) of 13 pg/mL. For the same substance, the IFN-γ stood at 297 pg/mL (Table 13, donor 28156); 378 pg/mL (Table 13, donor 28157); 88 pg/mL (Table 13, donor 28158); 218 pg/mL (Table 13, donor 28159). The substance also had an IFN-α mean (Table 13, mean of donors) of 31 pg/mL. This substance returned an IFN-γ mean (Table 13, mean of donors) of 245 pg/mL.

As to “5′-GsGs-3′-C3-5′-TGC-3′-C3-5′-ATCGAT-3′-C3-5′-GCA-3′-C3-5′-GGsGsGsGsG-3′ (s = phosphorothioate linkages, otherwise linkages are phosphodiester) [Compound C-84]”, the IFN-α came out at 0 pg/mL (Table 11, donor 28042); 0 pg/mL (Table 11, donor 28043); 5 pg/mL (Table 11, donor 28044); 222 pg/mL (Table 11, donor 28045). Further, the IFN-γ reads like this: (Table 11, donor 28042) 29 pg/mL; (Table 11, donor 28043) 23 pg/mL; (Table 11, donor 28044) 69 pg/mL; (Table 11, donor 28045) 232 pg/mL. This substance had an IFN-α mean (Table 11, mean of donors) of 57 pg/mL. The substance also yielded an IFN-γ mean (Table 11, mean of donors) of 88 pg/mL.

Regarding “(5′-TCGACGT-HEG)2-glycerol-HEG-5′-CCTACTGAACCTCTAAGT-3′ (SEQ ID NO: 158) (DNA, all phosphorothioate, methylation of C not given here; Two heptamer DNA arms joined by HEG spacers and glycerol branching to the chain) [Compound C-203]”, the IFN-α reads like this: (Example 59, 0.8 ug/ml, donor 48) 102 pg/mL; (Example 59, 0.8 ug/ml, donor 177) 102 pg/mL; (Example 59, 0.8 ug/ml, donor 272) 102 pg/mL; (Example 59, 0.8 ug/ml, donor 273) 102 pg/mL; (Example 59, 4 ug/ml, donor 48) 691 pg/mL; (Example 59, 4 ug/ml, donor 177) 487 pg/mL. In addition, the IFN-α was 102 pg/mL (Example 59, 4 ug/ml, donor 272); 102 pg/mL (Example 59, 4 ug/ml, donor 273); 735 pg/mL (Example 59, 20 ug/ml, donor 48); 681 pg/mL (Example 59, 20 ug/ml, donor 177); 102 pg/mL (Example 59, 20 ug/ml, donor 272); 102 pg/mL (Example 59, 20 ug/ml, donor 273). Moreover, the IFN-α mean reads like this: (Example 59, 0.8 ug/ml, mean of four donors) 102 pg/mL; (Example 59, 4 ug/ml, mean of four donors) 346 pg/mL; (Example 59, 20 ug/ml, mean of four donors) 405 pg/mL.

In turn, “5′-TCGACGT-3′ [Compound P-14, reference compound]” gave an IFN-a mean of 16 pg/mL and an IFN-g mean of 16 pg/mL. The same substance had an IFN-a (donor 28250) of 16 pg/mL. Moreover, the IFN-g under setting [1] stood at 10 pg/mL. Where the note is “donor 28251”, this substance displayed an IFN-a of 16 pg/mL and an IFN-g of 34 pg/mL. Besides, under “donor 28252”, the IFN-a is 16 pg/mL and the IFN-g is 11 pg/mL. For the setting “donor 28253”, the IFN-a came out at 16 pg/mL and the IFN-g worked out at 10 pg/mL.

For the substance “5′-TCCATTT-3′-HEG-5′-AACGTTC-3′-HEG-5′-TGACGTT-3′ [Compound C-61]”, the IFN-α is, setting by setting: (Table 13, donor 28156) 3 pg/mL; (Table 13, donor 28157) 0 pg/mL; (Table 13, donor 28158) 47 pg/mL; (Table 13, donor 28159) 0 pg/mL. Further, the IFN-γ came out at 92 pg/mL (Table 13, donor 28156); 179 pg/mL (Table 13, donor 28157); 35 pg/mL (Table 13, donor 28158); 63 pg/mL (Table 13, donor 28159). Also, the IFN-α mean (Table 13, mean of donors) amounted to 13 pg/mL. The substance further registered an IFN-γ mean (Table 13, mean of donors) of 92 pg/mL. The “IFN-γ induction when formulated with cPLGA, in words” value (formulated with cPLGA) is recorded as “induced IFN-γ when formulated with cPLGA”.

With “5′-TCGTCGA-3′-HEG-5′-AGATGAT-3′-HEG-5′-ACGTTCG-3′ [Compound C-56]”, the “immunomodulatory activity (IFN-γ / IFN-α secretion), in words” value was “most active CICs”. Where the note is “Table 13, donor 28156”, the IFN-α turned out to be 98 pg/mL and the IFN-γ stood at 1223 pg/mL. Moreover, where the note is “Table 13, donor 28157”, the IFN-α was found to be 415 pg/mL and the IFN-γ was determined as 543 pg/mL. For the same substance, where the note is “Table 13, donor 28158”, the IFN-α came to 57 pg/mL and the IFN-γ turned out to be 203 pg/mL. For the setting “Table 13, donor 28159”, this substance gave an IFN-α of 131 pg/mL and an IFN-γ of 563 pg/mL. For the setting “Table 13, mean of donors”, this substance returned an IFN-α mean of 175 pg/mL and an IFN-γ mean of 633 pg/mL.

“HEG-5′-TCGTCG-3′-HEG-5′-ACGTTCG-3′-HEG-5′-AGATGAT-3′-TEG (phosphodiester linkages) [Compound C-31]”: the “immunomodulatory activity (IFN-γ / IFN-α secretion), in words” value was “inactive as a CIC alone”. Besides, where the note is “Table 9, donor 28089”, the IFN-α worked out at 158 pg/mL and the IFN-γ is 0 pg/mL. Where the note is “Table 9, donor 28090”, this substance registered an IFN-α of 26 pg/mL and an IFN-γ of 0 pg/mL. For the same substance, where the note is “Table 9, donor 28098”, the IFN-α came out at 62 pg/mL and the IFN-γ is 0 pg/mL. For the setting “Table 9, donor 28099”, this substance had an IFN-α of 29 pg/mL and an IFN-γ of 2 pg/mL. Further, where the note is “Table 9, mean of donors”, the IFN-α mean is 69 pg/mL and the IFN-γ mean was 0 pg/mL. Moreover, the “activity when formulated with cPLGA, in words” value (formulated with cPLGA) is reported as “good activity when formulated with cPLGA”.

Consider “5′-ATCTCGA-3′ [Compound P-5, reference compound]”, for which the “immunomodulatory activity (IFN-γ / IFN-α secretion), in words” value is “did not have immunomodulatory activity”. For the setting “20 μg/ml, 24 h”, the “IFN-α (pg/ml) Donor 3” value came to 0 pg/mL, the “IFN-γ (pg/ml) Donor 3” value was 0 pg/mL, the “IFN-α (pg/ml) Donor 4” value was determined as 57 pg/mL and the “IFN-γ (pg/ml) Donor 4” value was 3 pg/mL. Also, under setting [5], the “IFN-α (pg/ml) mean” value is 29 pg/mL and the “IFN-γ (pg/ml) mean” value came out at 2 pg/mL.

“5′-TGACTGTGAAGGTTAGAGATGA-3′ (SEQ ID NO: 136) (listed as DNA, chemistry not fully specified) [Compound P-8, reference compound]” had an IFN-α (Table 13, donor 28156) of 16 pg/mL; an IFN-α (Table 13, donor 28157) of 9 pg/mL; an IFN-α (Table 13, donor 28158) of 24 pg/mL; an IFN-α (Table 13, donor 28159) of 8 pg/mL. Moreover, the IFN-γ reads like this: (Table 13, donor 28156) 255 pg/mL; (Table 13, donor 28157) 20 pg/mL; (Table 13, donor 28158) 31 pg/mL; (Table 13, donor 28159) 31 pg/mL. The same substance came in with an IFN-α mean (Table 13, mean of donors) of 14 pg/mL. Further, the IFN-γ mean (Table 13, mean of donors) was found to be 84 pg/mL.
